We go through three molecules from patent US20210369693A1, “METHODS AND PHARMACEUTICAL COMPOSITIONS FOR THE TREATMENT OF NON-ALCOHOLIC STEATOHEPATITIS” (Eiger Biopharmaceuticals, Inc., priority 2017, published 2021).

Values after ≈ are worked out from the molar mass of the structure shown.

The subject of one data set is advanced NASH. The note with it: after a year of treatment; cited from earlier work.
The conditions of data set [1]: cited from earlier work.
For the next data set, the system named is animal model of NASH. Kind of data set: Animal model of NASH (hypothesized). It is filed as in vivo. An excerpt: Accordingly, in one aspect, methods of treating one or more symptoms of NAFLD and/or NASH, such as hepatocyte ballooning, steatosis, and lobular inflammation, are provided. […] Thus, in some embodiments, administration of pirfenidone as described herein is hypothesized to decrease ballooning and measurably lower plasma and/or liver CK-18 levels in as few as 3 to 12 weeks after treatment initiation. In some embodiments, it is hypothesized that continued daily administration of pirfenidone is efficacious in decreasing inflammation and fibrosis in NASH within 2 to 72 weeks after treatment initiation. In some embodiments, it is hypothesized that treatment with pirfenidone results in an improvement in one or more parameters such as improved ALT enzyme levels, decreased inflammation, decreased steatosis, reduced severity of NASH symptoms, reduced levels of NASH biomarkers such as CK-18, or the slowing, stopping, or reversing of liver fibrosis.

As for `CCCCOCCOc1ccc(-c2ccc3c(c2)/C=C(/C(=O)Nc2ccc([S@@+]([O-])Cc4cncn4CCC)cc2)CCCN3CC(C)C)cc1` [cenicriviroc], the “primary endpoint of improving inflammation and liver damage” value with advanced NASH was “failed to meet its primary endpoint”.

Turning to `CC(C)C[C@H](NC(=O)[C@@H](O)[C@H](N)Cc1ccccc1)C(=O)O` [Ubenimex, (2S)-2-[[(2S,3R)-3-amino-2-hydroxy-4-phenylbutanoyl]amino]-4-methylpentanoic acid], the solubility in water in data set [1] (water) was 1270 µg/mL (≈ 4.12 mM).

On to `Cc1ccc(=O)n(-c2ccccc2)c1` [pirfenidone, 5-methyl-1-phenyl-2-1-(H)-pyridone], for which the “relative solubility in solvents” value in data set [1] (methanol, ethyl alcohol, acetone, chloroform vs water and 1.0 N HCl) was “more soluble in methanol, ethyl alcohol, acetone and chloroform than in water and 1.0 N HCl”. Further, in the data set with animal model of NASH (animal model of NASH), the hepatocyte ballooning entry is “demonstrates efficacy in slowing and preventing hepatocyte ballooning”; the lobular inflammation result is given as “reduces”; the steatosis entry is given as “reduces steatosis”. Further, the “plasma CK-18 levels” value with animal model of NASH (relative to control animals) is recorded as “decline significantly”.
